The text below walks through data of ChEMBL document CHEMBL5104127, “Design and preparation of N-linked hydroxypyridine-based APJ agonists” (Bioorg Med Chem Lett, 2022).

Series [1] in a line: Metabolic stability in human liver microsomes incubated for 10 mins and assessed as compound remaining. Type of series: ADME, Microsome. Particulars: read-out: Stability. In general terms: Liver microsomes are vesicles of endoplasmic reticulum, rich in cytochrome P450 enzymes.
For series [2], the target named is T1, Apelin receptor (Homo sapiens, UniProt P35414).
T1 sequence (P35414 whole entry): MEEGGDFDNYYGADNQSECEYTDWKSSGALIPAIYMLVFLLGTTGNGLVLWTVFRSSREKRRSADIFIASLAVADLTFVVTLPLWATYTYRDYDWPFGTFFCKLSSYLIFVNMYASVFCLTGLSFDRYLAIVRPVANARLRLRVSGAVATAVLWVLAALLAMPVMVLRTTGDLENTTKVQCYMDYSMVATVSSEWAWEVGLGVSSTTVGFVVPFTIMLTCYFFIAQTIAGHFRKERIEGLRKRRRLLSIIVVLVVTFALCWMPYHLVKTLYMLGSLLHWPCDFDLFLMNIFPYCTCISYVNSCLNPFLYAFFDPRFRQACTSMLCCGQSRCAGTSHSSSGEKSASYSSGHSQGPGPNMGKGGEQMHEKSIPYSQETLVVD
Put plainly: Agonist activity at human APJ receptor expressed in HEK293 cells assessed as compound stimulated inhibition of forskolin stimulated cAMP production incubated for 30 mins and measured by fluorescence based assay. The class given is functional, cell-based.

Series [3] is described as follows: Metabolic stability in rat liver microsomes incubated for 10 mins and assessed as compound remaining. The note with it: read-out: Stability. Type of series: ADME, Microsome.
A short description of series [4]: AUC in rat at 1 mg/kg, po. Type of series: ADME, organism-based. Further details: dose 1 mg/kg, route po. The note with it: in vivo.
Series [5] is described as follows: Cmax in rat at 1 mg/kg, po. Type of series: ADME, organism-based. Further details: dose 1 mg/kg, route po. Particulars: in vivo.

pEC50: −log10 of the molar value.

Consider `CCCCc1nc(O)c(C(=O)N2CCC(c3ccc(Cl)cn3)C2)c(O)c1N(CC)c1ccccc1` (stereo unspecified), for which the remaining at 10 min amounted to 62% in series [1] and 26% in series [3]. The pEC50 in series [2] is 9.55. Taken in the same sequence, the figures for `CCCCc1nc(O)c(C(=O)N2CCC(c3ncc(Cl)cc3F)C2)c(O)c1N(CC)c1ccccc1` (stereo unspecified) were 53%, 12% and 9.62. As to `CCCCc1nc(O)c(C(=O)N2CCC(c3ccccc3F)C2)c(O)c1N(CC)c1ccccc1` (stereo unspecified), in series [2], the pEC50 is 8.08. Same read-out and setting: the value for `CCCCc1nc(O)c(C(=O)N2CC[C@H](c3ccccc3)C2)c(O)c1N(C)c1cccc(OC)c1` was under 7.12; that for `CCCCc1nc(O)c(C(=O)N2CC[C@H](c3ccccc3)C2)c(O)c1N(C)c1ccccc1OC` was under 7.12; that for `CCCCc1nc(O)c(C(=O)N2CC[C@H](c3ccccc3)C2)c(O)c1N1CCCc2ccccc21` was under 6.82. Turning to `CCN(c1ccccc1)c1c(CC2CC2)nc(O)c(C(=O)N2CCC(c3ncc(F)cc3F)C2)c1O` (stereo unspecified), in series [2], the pEC50 is 7.89.

On to `CCCCc1nc(O)c(C(=O)N2CC[C@H](c3ccccc3)C2)c(O)c1N(CC)c1ccccc1`, for which the remaining at 10 min came to 27% in series [1] and 7% in series [3]. Moreover, the pEC50 in series [2] is 7.89. As to `CCCCc1nc(O)c(C(=O)N2CCN(Cc3cccc(Cl)c3Cl)CC2)c(O)c1N(CC)c1ccccc1`, in series [2], the pEC50 is 7.80. The same measure, in the same setting: the value for `CCCCc1nc(O)c(C(=O)N2CC[C@H](c3ccccc3)C2)c(O)c1N1CCc2ccccc21` was 7.68; that for `CCCCc1nc(O)c(C(=O)N2CC[C@H](c3ccccc3)C2)c(O)c1N(c1ccccc1)C(C)C` was 7.46.

For `CCCCc1nc(O)c(C(=O)N2CC[C@@H](c3ccccc3)C2)c(O)c1N(CC)c1ccccc1`, the remaining at 10 min in series [1] is 56%; in series [3], 17%. Further, the pEC50 in series [2] is 7.92. Take `CCCCc1nc(O)c(C(=O)N2CC[C@H](c3ccccc3)C2)c(O)c1N(C)c1ccc(OC)cc1`: the pEC50 in series [2] was 7.21. With `CCN(c1ccccc1)c1c(-c2cccc(C)c2)nc(O)c(C(=O)N2CCC(c3ncc(F)cc3F)C2)c1O` (stereo unspecified), the remaining at 10 min in series [1] came to 57%; in series [3], 7%. Also, the pEC50 in series [2] was 10.00.

Regarding `CCCCc1nc(O)c(C(=O)N2CCC(c3ncc(F)cc3F)C2)c(O)c1N(CC)c1ccccc1` (stereo unspecified), the pEC50 in series [2] was 9.62.

For `CCCCc1nc(O)c(C(=O)N2CC[C@H](c3ccccc3)C2)c(O)c1N(C)c1ccccc1`, the pEC50 in series [2] is 7.42. In the case of `CCN(c1ccccc1)c1c(-c2ccn(C)n2)nc(O)c(C(=O)N2CCC(c3ncc(F)cc3F)C2)c1O` (stereo unspecified), the figures for the remaining at 10 min in series [1] and in series [3] were 87% and 82%, respectively. Moreover, the pEC50 in series [2] was 9.52. Moreover, the AUC in series [4] worked out at 4.8 µM·h. In series [5], this molecule came in with a Cmax of 5.2 µM.

As usually defined, the pEC50 is the EC50 on a negative log10 scale, so that one unit is a factor of ten. What is called AUC is concentration integrated over time. A lower AUC goes with less exposure. By Cmax is commonly meant the highest concentration seen after dosing.
